Reference: the NIST ThermoML archive (doi:10.1021/acs.jced.5b00675)

Conditions: Liquid, Closed cell (Static) method

FCC(F)(F)F [1,1,1,2-tetrafluoroethane]
Conditions	vapor or sublimation pressure [kPa]
258.2 K	162
262.2 K	193
272.2 K	286
282.6 K	411
292.9 K	569
302.7 K	763
